Laboratory results: PMC4503694, “The Human Autoantibody Response to Apolipoprotein A-I Is Focused on the C-Terminal Helix: A New Rationale for Diagnosis and Treatment of Cardiovascular Disease?” (PLoS ONE, 2015)

Legend:
[1] = tested on: anti-ApoA-I antibodies in plasma samples from three different patients; experiment: Competition ELISA with plasma of three individual anti-ApoA-I-positive patients; type: binding, human; conditions: preincubated 2 h at room temperature with peptide, n = 3 (Fig 3)
Description: We next performed ELISA assays using plasma samples from three different anti-ApoA-I autoantibody-positive patients from the cohort pre-incubated with Peptide F, a scrambled version of Peptide F (Table 1), or the stapled peptide F3L1 prior to addition to wells coated with ApoA-I (Fig 3).
Plasma samples were preincubated (2 h, room temperature) with peptides at the indicated concentrations prior to addition to assay wells. Percent maximal ELISA signals were calculated as 100 × ([signal in well]-[mean background signal (uncoated well)])/ ([mean maximal signal (no peptide)]-[mean background signal]). Results are expressed as mean ± SD (n = 3).

[2] = CD spectroscopy (alpha-helical content); type: physicochemical; conditions: 100 μM peptide in water with 1.25% trifluoroethanol, 20°C (Fig 2)
Description: Experiments were carried out in 0.1 cm quartz cell using a Jasco J-710 spectrometer with 100 μM peptide solutions (1.25% trifluoroethanol in water) at 20°C.
Fig 2 CD spectroscopy of peptide F3L1 indicates increased alpha-helical content. CD spectra of Peptide F and F3L1 were measured at 100μM concentration in water containing 1.25% trifluoroethanol.

[3] = tested on: human monocyte-derived macrophages; experiment: Anti-ApoA-I IgG-mediated IL-6 and TNF-α release from human monocyte-derived macrophages; type: cell-based; conditions: for inhibition of anti-ApoA-I IgG-induced TNF-α and IL-6 release: peptide preincubated with anti-ApoA-I IgG 2 h at room temperature, highest concentration 1 mg/mL (Fig 5, 6)
Description: Human monocytes were isolated from buffy coats from healthy donors at the Geneva University Hospitals Blood Transfusion Center and differentiated into macrophages by 24 h incubation with IFN-γ (500 U/ml) in complete RPMI-1640 culture medium (10% heat-inactivated FCS, 50 μg/ml streptomycin, 50 U/ml penicillin, 2 mM L-glutamine), as previously described. Assays of anti-ApoA-I IgG-mediated release of IL-6 and TNF-α from human monocyte-derived macrophages was carried out as described previously using a previously determined optimal concentration of polyclonal goat anti-ApoA-I IgG (40 μg/ml). Endotoxin contamination in the assay was excluded using the limulus amebocyte lysate Endochrome assay. Where indicated, anti-ApoA-I IgG was pre-incubated with peptide […] (1 mg/mL) for 2 h at room temperature prior addition to the cells. Each experiment was performed on cells from […] different healthy blood donors. […] We next used a Luminex assay to measure the capacity of peptide […] to inhibit endotoxin-free anti-ApoA-I IgG-mediated proinflammatory cytokine release in human monocyte-derived macrophages (Fig 5a and 5b). As expected from previously published work, anti-ApoA-I IgG elicited a significant increase in production of both in IL-6 and TNF-α when compared to control IgG (Ctl IgG; p<0.0001 for both cytokines). […] We were unable to measure the inhibitory activity of intact purified and delipidated ApoA-I in this assay because traces of endotoxin elicit significant levels of background cytokine secretion (NV and SP, unpublished observations).  Fig 5 Peptide […] inhibits anti-ApoA-I IgG-mediated release of proinflammatory cytokines from cultured human monocyte-derived macrophages. Release of proinflammatory cytokines TNF-α (a) IL-6 (b) from human monocyte-derived macrophages induced by endotoxin-free goat polyclonal anti-ApoA-I IgG was determined with or without preincubation (2 h at room temperature) of the anti-ApoA-I IgG with peptide […] (1 mg/mL) and the corresponding scrambled peptide (Scr Pept). […] Anti-ApoA-I IgG was incubated with the indicated […] concentrations (preincubation 2 h at room temperature) prior to addition to cultured human monocyte-derived macrophages. Levels of proinflammatory cytokines were determined after 24 h culture. Experiments were repeated using cells from three different healthy donors, with results expressed as median, interquartile range (IQR) and range.

RAW cells = experiment: Anti-ApoA-I IgG-induced TNF-α release in RAW mouse macrophage cell line; type: cell-based; conditions: anti-ApoA-I IgG 100 μg/ml preincubated 2 h with peptide 100 to 0.06 μg/ml; 24 h stimulation; ELISA; n = 3 (Fig 7)
Description: Raw cells were seeded in 96-well plates at 2 × 10^5 cells/well in DMEM culture medium (10% heat-inactivated FCS, 50 μg/ml streptomycin, 50 U/ml penicillin) for 24 h. Anti-Apo-A1 IgG (100 μg/ml) were incubated with peptides across a concentration range from 100 μg/ml to 0.06 μg/ml for 2 h at room temperature prior addition to cells. After 24 h stimulation, mouse TNF-α was quantified in the cell supernatants by ELISA according to manufacturer’s instructions (R&D system, MN).
Fig 7 Comparing the inhibitory potency of Peptide F and F3L1 on anti-ApoA-I IgG-induced TNF-α. Anti-ApoA-I IgG was incubated with the indicated peptide concentrations (preincubation 2 h at room temperature) prior to addition to cultured RAW cells. Levels of proinflammatory cytokines (TNF-α) were determined after 24 h culture. Mean levels (n = 3) are shown with error bars indicating the range.

[4] = tested on: anti-ApoA-I autoantibodies in pooled patient plasma; experiment: Capture ELISA: immunoreactivity of pooled anti-ApoA-I-positive patient plasma to coated peptides; type: binding, human; conditions: pooled plasma of anti-ApoA-I-positive patients; peptide as coating antigen; mean ± SD, n = 3 (Fig 1a)
Description: Anti-ApoA-I IgG autoantibodies in plasma were measured as described previously. Briefly, Maxisorp plates (Nunc) were coated with purified and delipidated human ApoA-I, diluted in carbonate buffer pH 9.7 (20 μg/ml; 50 μl/well), for 1 h at 37°C. The same procedure was used for the engineered peptides. After three washes with PBS/ 2% (w/v) BSA (100 μl/well), all wells were blocked for 1 h with PBS/ 2% (w/v) BSA at 37°C. Samples were diluted 1:50 in PBS/ 2% (w/v) BSA and incubated for 60 min at 37°C. Samples at the same dilution were also added to a non-coated well to assess individual non-specific binding. After six further washes, 50 μl/well of alkaline-phosphatase conjugated anti-(human IgG) (Sigma-Aldrich), diluted 1:1000 in PBS/ 2% (w/v) BSA, was incubated for 1 h at 37°C. After six more washes (150 μl/well) with PBS/ 2% (w/v) BSA, the phosphatase substrate p-nitrophenyl phosphate (50μl/well; 1mg/ml; Sigma—Aldrich) dissolved in 4.8% (w/v) diethanolamine (pH 9.8) was added. Each sample was tested in duplicate and A 405nm was determined after 20 min of incubation at 37°C (VERSAMax; MolecularDevices). The corresponding non-specific binding was subtracted from the mean absorbance for each sample. As in previous studies, positive immunoreactivity of human samples to ApoA-I was prospectively defined by an index >37%. This value was also used to define positive immunoreactivity to mimetic peptides, as defined upon receiver operating characteristic (ROC) curve analyses, and shown to provide an identical prevalence of positive immunoreactivity levels 11% […] to native ApoA-1 and 11% (14/132) to F3L1 peptide (data not shown). Repeatability and reproducibility were determined at two levels. At a high level (A 405nm = 1.2, i.e. twice the cut-off value), the intra- and inter-assay coefficients of variation were 10% (n = 10) and 17% (n = 10) respectively. At the cut-off level, the intra- and inter-assay coefficients of variation were 16% (n = 10) and 12% (n = 8) respectively.
In order to characterize the anti-ApoA-I autoantibody response, we chemically synthesized a panel of peptides corresponding to the different alpha-helical regions in the protein (Table 1). Each of the two longest helical regions, C and D, were synthesized as two separate peptides (C1, C2, D1, D2) whose sequences are located on either side of centrally located proline residues (Pro^121 for Region C, Pro^165 for Region D (Table 1)). The synthetic peptides were then used as coating antigens in a capture ELISA experiment to compare their immunoreactivity against pooled plasma from a subset of patients from our acute chest pain cohort that had previously shown to be positive for anti-ApoA-I autoantibodies (Fig 1a).
(§1) Fig 1 The anti-ApoA-I autoantibody response is strongly biased towards the C-terminal alpha-helical region. ELISA experiments were carried out using a set of ApoA-I-derived peptides (Table 1). a. Capture ELISA assay to determine the immunoreactivity of plasma pooled from patients known to be positive for anti-ApoA-I autoantibodies against the set of peptides. Specific ELISA signals were calculated as [signal in well]-[mean background signal (uncoated well)]. Results are expressed as mean ± SD (n = 3) b and c. Competition ELISA to determine the capacity of the set of peptides to block binding of anti-ApoA-I antibodies from either pooled patient plasma (b) or goat polyclonal IgG (c) to immobilized ApoA-I. Plasma or antibody was preincubated (2 h, room temperature) with peptides at the indicated concentrations prior to addition to assay wells. Percent maximal ELISA signals were calculated as 100 × ([signal in well]-[mean background signal (uncoated well)])/([mean maximal signal (no peptide)]-[mean background signal]). Results are expressed as mean ± SD (n = 3).

[5] = tested on: anti-ApoA-I antibodies from pooled patient plasma; experiment: Competition ELISA: peptides block binding of antibodies from pooled patient plasma to immobilized ApoA-I; design: species or system human; conditions: pooled patient plasma preincubated 2 h at room temperature with peptide; wells coated with intact ApoA-I (Fig 1b)
Description: as §1, with “3). […] In contrast, when pre-incubated with goat polyclonal anti-ApoA-I IgG, none of the peptides, including Peptide F, decreased signal inhibition by 15% at the highest concentration (Fig 1c). […]” for “3).”

[6] = tested on: goat polyclonal anti-ApoA-I IgG; experiment: Competition ELISA: peptides block binding of goat polyclonal IgG to immobilized ApoA-I; conditions: goat polyclonal anti-ApoA-I IgG preincubated with peptide; wells coated with ApoA-I (Fig 1c)
Description: as §1, with “3). […] In contrast, when pre-incubated with goat polyclonal anti-ApoA-I IgG, none of the peptides, including Peptide F, decreased signal inhibition by 15% at the highest concentration (Fig 1c). […]” for “3).”

[7] = anti-ApoA-I IgG 40 μg/ml preincubated 2 h at room temperature with peptide 1 mg/mL (342 μM), nine donors, Luminex

| Substance | inhibition of binding of anti-ApoA-I IgG to immobilized ApoA-I [1] | alpha-helical content by CD [2] | median IL-6 production [3, 7] | median TNF-α production [3, 7] | inhibition of anti-ApoA-I IgG-induced TNF-α and IL-6 release [3] | cytokine production by peptide compared to control IgG ([3]; peptide without anti-ApoA-I IgG, trend for TNF-α, p = 0.05) | inhibitory potency on anti-ApoA-I IgG-induced TNF-α (RAW cells) | plasma immunoreactivity (specific ELISA signal) to coated peptide [4] | maximal inhibition plateau of total anti-ApoA-I signal [5] | peptide concentration above which inhibition of ELISA signal is seen [5] | decrease of ELISA signal at the highest peptide concentration [6] |
| --- | --- | --- | --- | --- | --- | --- | --- | --- | --- | --- | --- |
| Ac-GLLPVLESFKVSFLSALEEYTKKLNT-NH2 (also: sidechain bridge or staple (positions not given here)) [Peptide F3L1, stapled version of Peptide F with a Glu-Lys lactam bridge] | consistently improved binding inhibition with respect to Peptide F | increased alpha-helical content compared to the parent molecule | 19.2 pg/mL | 48.4 pg/mL | dose-dependent manner | devoid of significant biological activity | clearly a more potent inhibitor than Peptide F | – | – | – | – |
| GLLPVLESFKVSFLSALEEYTKKLNT [Peptide F, ApoA-I-derived peptide, residues 220–242, C-terminal alpha-helix] | – | – | – | – | comparable to that of F3L1 | – | – | strongest signal | approximately 50% | above 3 μM | < 15% |
